Legend:
Type in all cases: cell-based
Human melanocytes = assay: Melanin synthesis in human melanocytes; details: positive control, concentration not given; 5 days of culture; n=5; p<0.01
Protocol: Human melanocytes were seeded in 24-well plates. After 24 h of attachment, the cells are in contact with the test products. After 5 days of culture, the layers are rinsed, the total melanins are extracted in sodium hydroxide and assayed spectrophotometrically at 490 nm. For tyrosinase, an identical culture protocol is followed and then the enzyme is extracted from the cells and DOPA oxidase activity is measured spectrophotometrically at 37°C with a solution of L-DOPA to 0.2%. The data are normalized using a viability assay. Table 9: inhibition of melanogenese in the presence of the extract of Oxydendrum arboreum cell culture compared with control. (n=5)

tyrosinase = target: T1, tyrosinase (Homo sapiens, UniProt P14679); assay: Tyrosinase (DOPA oxidase) activity extracted from human melanocytes; details: positive control, concentration not given; 5 days of culture; n=5; p<0.01
T1 sequence (P14679 19-529): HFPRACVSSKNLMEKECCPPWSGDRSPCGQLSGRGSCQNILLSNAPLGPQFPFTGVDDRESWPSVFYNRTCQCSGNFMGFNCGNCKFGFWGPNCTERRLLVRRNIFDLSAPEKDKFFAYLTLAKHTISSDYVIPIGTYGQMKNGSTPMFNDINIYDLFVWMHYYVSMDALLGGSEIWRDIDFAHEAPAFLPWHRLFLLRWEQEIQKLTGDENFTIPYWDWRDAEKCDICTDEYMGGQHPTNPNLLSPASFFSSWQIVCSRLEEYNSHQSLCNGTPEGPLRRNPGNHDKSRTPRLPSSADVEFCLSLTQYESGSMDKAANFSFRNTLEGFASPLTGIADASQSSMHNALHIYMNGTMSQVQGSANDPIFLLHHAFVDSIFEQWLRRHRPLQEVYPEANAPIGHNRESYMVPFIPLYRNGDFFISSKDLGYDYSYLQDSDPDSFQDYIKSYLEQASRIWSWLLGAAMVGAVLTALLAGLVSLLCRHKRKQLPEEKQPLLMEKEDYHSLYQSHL

collagen I = assay: Collagen I synthesis by normal human fibroblasts (immuno-labeling); details: positive control, concentration not given; NHF, 7 days; p<0.01
Protocol: Normal human fibroblasts (NHF) are cultivated in plate MW24 for 24 hours. The cells are in contact or not of test products at various concentrations for 7 days. The synthesis of collagen I is then quantified by immuno-labeling fixed on the layer. Table 7: increase of collagen I on NHF in the presence of the extract of Oxydendrum arboretum cell culture compared with control. (n=4 wells/ 20 photos)

SMILES | Melanin (% Change / Control) (Human melanocytes) [%] | Tyrosinase (% Change / Control) (tyrosinase) [%] | Collagen I Synthesis % change / control (collagen I)
OC[C@H]1O[C@@H](Oc2ccc(O)cc2)[C@H](O)[C@@H](O)[C@@H]1O [Arbutin] | -56 | -48 | 
O=C1O[C@H]([C@@H](O)CO)C(O)=C1O [Vitamin C] |  |  | +236% ; p<0.01
